Source: patent US20110028499A1, “PHARMACEUTICAL COMBINATION COMPRISING VITAMIN K” (SHIONOGI & CO., LTD., priority 2005, published 2011)
Several values for one entry are separate records, joined by “and”; a condition that tells them apart may be missing. Equal entries are not always repeated. Entries after “also recorded” stand apart in the source; their conditions may differ.

Legend:
[1] = test system: extrinsic and intrinsic blood coagulation factors; test: Example 2: activities of extrinsic and intrinsic blood coagulation factors in rat plasma (factor deficient plasma method); assay type: in vivo; details: 300 mg/kg/day oral, mean, % of intact rat plasma
male Sprague-Dawley rats [2] = test: Example 2: PT, APTT and Fbg in rat plasma after 1, 2 and 3 administrations; assay type: in vivo; details: 300 mg/kg/day oral, blood on next day, mean
[3] = test system: skeletal muscle (soleus muscle); test: Example 4: histological examination of skeletal muscle (soleus muscle); assay type: in vivo; set-up: key: (±): slight; (+): mild; details: rat, Compound (a) only 200 mg/kg oral, 7 days; individual animal
male Sprague-Dawley rats [4] = test: Example 4: PT, APTT and Fbg in rats given Compound (a) with or without vitamin K1 for 7 days; assay type: in vivo; details: rat; for APTT / Fbg / PT: Compound (a) only 200 mg/kg oral
Experimental: 4-week-old male Sprague-Dawley rats (Crl:CD(SD), SPF) were purchased from CHARLES RIVER LABORATORIES JAPAN, INC., Hino Breeding Center. […] 0.005% (v/v) solution of vitamin K1 (TOYO Pharma Co., Ltd., 30 mg/3 mL) was prepared just before use with a vehicle of water for injection (Otsuka Pharmaceutical Factory, Inc.). […] Dosing volume was calculated based on body weight, measured on that day. […] The rats were dissected after collecting the blood and a visual inspection of skeletal muscle (soleus muscle) was carried out. After that, the muscle was fixed with 10% neutral buffered formalin, paraffin section was routinely processed, and a histological examination was carried out with an optical microscope after hematoxylin and eosin staining.

[5] = test system: Vitamin K-dependent coagulation factors (F-II, F-VII, F-X, F-IX); test: Example 3: activities of vitamin K-dependent coagulation factors in rats given Compound (a) and/or vitamin K1; assay type: in vivo; details: rat, 3 days; for F-II activity / F-IX activity / F-VII activity / F-X activity: mean
Experimental: (§1) 4-week-old male Sprague-Dawley rats (Crj:CD(SD)IGS, SPF) were purchased from CHARLES RIVER LABORATORIES JAPAN, INC., Hino Breeding Center. […] Administeration was started at. […] Subcutaneous administeration was a 3-day administeration (3 or 200 μg/kg/day) into the back skin with injection syringe attached with a subcutaneous 1⁄4 needle at 1 mL/kg/day. Oral administeration was a 3-day repeated gavage administeration (200 μg/kg/day) with gastric tube for rats at. 4 mL/kg/day. Dosing volume was calculated based on body weight measured on that day. […] Activities of Vitamin K-dependent coagulation factors ([…]) were also) measured with the same blood plasma samples according to Example 2.

male Sprague-Dawley rats [6] = test: Example 1: PT, APTT and Fbg in rat plasma after 7-day repeated gavage administration; assay type: in vivo; details: 300 mg/kg/day gavage, 7 days; for PT and APTT compared with Controls / APTT / Fbg / PT: rat
male Sprague-Dawley rats [7] = test: Example 3: PT, APTT and Fbg in rats given Compound (a) and/or vitamin K1 for 3 days; assay type: in vivo; details: rat; for APTT / Fbg / PT: mean
Experimental: as §1

[8] = disclosed in WO01/00603; cited from earlier work
human PPARδ (hPPARδ) = human PPARδ (hPPARδ) (Homo sapiens, UniProt Q03181); test: cell-based
[9] = Compound (a) only 300 mg/kg oral
[10] = Compound (a) only 300 mg/kg/day
[11] = individual animal, 300 mg/kg/day
[12] = vitamin K1 only 200 μg/kg subcutaneous

Sequence of human PPARδ (hPPARδ) (Q03181 139-441 limits assumed): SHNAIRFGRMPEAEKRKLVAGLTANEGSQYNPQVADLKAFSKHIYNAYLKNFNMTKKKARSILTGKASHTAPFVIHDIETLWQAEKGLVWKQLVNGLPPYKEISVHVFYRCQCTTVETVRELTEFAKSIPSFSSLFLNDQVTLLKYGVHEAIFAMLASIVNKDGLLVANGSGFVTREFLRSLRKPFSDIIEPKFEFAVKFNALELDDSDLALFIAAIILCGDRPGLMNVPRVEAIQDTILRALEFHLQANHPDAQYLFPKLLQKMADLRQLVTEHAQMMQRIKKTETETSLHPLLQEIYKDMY

Work on `Cc1cc(SCc2sc(-c3ccc(C(F)(F)F)cc3)nc2C)ccc1OCC(=O)O` [Compound (a), GW501516] yielded a F-II activity ([1]; 1 dose) of 60.8%, a F-IX activity ([1]; 1 dose) of 62.5% and a F-V activity ([1]; 1 dose) of 93.3%. For the same compound, the F-VII activity ([1]; 1 dose) was 57.7%, the F-VIII activity ([1]; 1 dose) was 99.2% and the F-X activity ([1]; 1 dose) was 68.3%. The F-XI activity ([1]; 1 dose) was 84.0%, the F-XII activity ([1]; 1 dose) was 79.4% and the F-II activity ([1]; 2 doses) was 24.2%. The F-IX activity ([1]; 2 doses) was 34.2%, the F-V activity ([1]; 2 doses) was 90.6% and the F-VII activity ([1]; 2 doses) was 17.1%. For the same compound, the F-VIII activity ([1]; 2 doses) was 94.2%, the F-X activity ([1]; 2 doses) was 44.7% and the F-XI activity ([1]; 2 doses) was 76.0%. It also gave a F-XII activity ([1]; 2 doses) of 80.7%, a F-II activity ([1]; 3 doses) of 15.1% and a F-IX activity ([1]; 3 doses) of 24.6%. The F-V activity ([1]; 3 doses) was 93.0%, the F-VII activity ([1]; 3 doses) was 8.8% and the F-VIII activity ([1]; 3 doses) was 101.2%. The F-X activity ([1]; 3 doses) was 32.4%, the F-XI activity ([1]; 3 doses) was 71.0% and the F-XII activity ([1]; 3 doses) was 78.6%. The APTT (male Sprague-Dawley rats [2]; 1 dose) was 19.9 s, the Fbg (male Sprague-Dawley rats [2]; 1 dose) was 200.1 mg/dL and the PT (male Sprague-Dawley rats [2]; 1 dose) was 14.6 s. It also gave an APTT (male Sprague-Dawley rats [2]; 2 doses) of 25.5 s, a Fbg (male Sprague-Dawley rats [2]; 2 doses) of 198.8 mg/dL and a PT (male Sprague-Dawley rats [2]; 2 doses) of 18.3 s. The APTT (male Sprague-Dawley rats [2]; 3 doses) was 30.7 s, the Fbg (male Sprague-Dawley rats [2]; 3 doses) was 175.7 mg/dL and the PT (male Sprague-Dawley rats [2]; 3 doses) was 21.7 s. The “Histological examination Soleus muscle: Necrosis” value [3] was “Necrosis (+); also recorded: Necrosis (±)”, the APTT (male Sprague-Dawley rats [4]; individual animal) was 34.1 s and 67.1 s and the Fbg (male Sprague-Dawley rats [4]; individual animal) was 199.7 mg/dL and 227.2 mg/dL. The PT (male Sprague-Dawley rats [4]; individual animal) was 19.1 s and 35.5 s, the APTT (male Sprague-Dawley rats [4]; mean) was 50.6 s and the Fbg (male Sprague-Dawley rats [4]; mean) was 213.5 mg/dL. For the same compound, the PT (male Sprague-Dawley rats [4]; mean) was 27.3 s, the “prothrombin time and activated partial thromboplastin time” value (male Sprague-Dawley rats [4]; Compound (a) only 200 mg/kg/day) was “prolonged” and the F-II activity [5, 9] was 13.8%. The F-IX activity [5, 9] was 27.7%, the F-VII activity [5, 9] was 6.3% and the F-X activity [5, 9] was 29.9%. The “activities of vitamin K-dependent coagulation factors compared with the intact group” value [5, 10] was “lowered”, the rats died (male Sprague-Dawley rats [6]; 4 animals in the group) was 3 and the “PT and APTT compared with Controls” value (male Sprague-Dawley rats [6]) was “prolonged”. It also gave an APTT (male Sprague-Dawley rats [6]; blood on next day, group mean) of 46.4 s, a Fbg (male Sprague-Dawley rats [6]; blood on next day, group mean) of 173.3 mg/dL and a PT (male Sprague-Dawley rats [6]; blood on next day, group mean) of 26.9 s. The APTT (male Sprague-Dawley rats [6]; individual animal) was 46.4 s, the Fbg (male Sprague-Dawley rats [6]; individual animal) was 173.3 mg/dL and the PT (male Sprague-Dawley rats [6]; individual animal) was 26.9 s. It also gave an APTT (male Sprague-Dawley rats [7]; [9]) of 30.2 s, a Fbg (male Sprague-Dawley rats [7]; [9]) of 177.8 mg/dL and a PT (male Sprague-Dawley rats [7]; [9]) of 23.0 s. For the same compound, the “PT and APTT compared with the intact group” value (male Sprague-Dawley rats [7]; [10]) was “more prolonged” and the “elevation of HDL” value [8] was “high elevation of HDL; also recorded: HDL-raising”.
In the case of `CCO/N=C/c1c(CSc2ccc(C(C)CC(=O)O)cc2OC)noc1-c1ccc(C(F)(F)F)cc1` (centres unmarked) [Compound (b)], the “PT and APTT compared with Controls” value (male Sprague-Dawley rats [6]) is reported as “prolonged”, the APTT (male Sprague-Dawley rats [6]; blood on next day, group mean) is reported as 31.3 s and the Fbg (male Sprague-Dawley rats [6]; blood on next day, group mean) is reported as 204.5 mg/dL. For the same compound, the PT (male Sprague-Dawley rats [6]; blood on next day, group mean) was 18.6 s, the APTT (male Sprague-Dawley rats [6]; [11]) was 29.1 s and 28.2 s and 30.7 s and 37.3 s and the Fbg (male Sprague-Dawley rats [6]; [11]) was 217.9 mg/dL (2×) and 208.9 mg/dL and 173.3 mg/dL. The PT (male Sprague-Dawley rats [6]; [11]) was 17.4 s and 18.6 s and 16.4 s and 22.0 s and the EC50 (human PPARδ (hPPARδ)) was 1.3 nM.
With `Cc1c(CSc2ccc([C@@H](C)CC(=O)O)cc2)noc1-c1ccc(C(F)(F)F)cc1` [Compound (c)] the “PT and APTT compared with Controls” value (male Sprague-Dawley rats [6]) was “prolonged”, the APTT (male Sprague-Dawley rats [6]; blood on next day, group mean) was 43.9 s and the Fbg (male Sprague-Dawley rats [6]; blood on next day, group mean) was 204.8 mg/dL. For the same compound, the PT (male Sprague-Dawley rats [6]; blood on next day, group mean) was 24.5 s, the APTT (male Sprague-Dawley rats [6]; [11]) was 21.9 s and 41.8 s and 68.2 s and 43.8 s and the Fbg (male Sprague-Dawley rats [6]; [11]) was 201.8 mg/dL and 179.6 mg/dL and 193.8 mg/dL and 243.9 mg/dL. The PT (male Sprague-Dawley rats [6]; [11]) was 13.6 s and 22.3 s and 35.9 s and 26.0 s and the EC50 (human PPARδ (hPPARδ)) was 18.9 nM.
`CC1=C(C/C=C(\C)CCC[C@H](C)CCC[C@H](C)CCCC(C)C)C(=O)c2ccccc2C1=O` [Vitamin K1, phylloquinone] showed a F-II activity [5, 12] of 92.7%, a F-IX activity [5, 12] of 100.2% and a F-VII activity [5, 12] of 70.1%. The F-X activity [5, 12] was 74.3%, the APTT (male Sprague-Dawley rats [7]; [12]) was 15.9 s and the Fbg (male Sprague-Dawley rats [7]; [12]) was 200.3 mg/dL. For the same compound, the PT (male Sprague-Dawley rats [7]; [12]) was 15.3 s and the “each item (PT, APTT, Fbg, factor activities) compared with the intact group” value (male Sprague-Dawley rats [7]; vitamin K1 only 200 μg/kg/day subcutaneous) was “no significant differences”.
